For data set [1] the following is noted: both, Sprague-Dawley, rat, in vivo, po.
For data set [2] the following is noted: dog, in vivo, po.
The nature of a further data set: in vivo. The note with it: both, Sprague-Dawley, rat, po.

Experimental findings from patent US6559137B1 (priority 1997, dated 2003) are described below.

In general, AUC refers to the area under the concentration-time curve, a measure of exposure. Higher therefore signals more exposure. The Cmax is the peak of the concentration-time curve. For orientation: Tmax means the time from dosing to the highest level.

Where two headings read alike, the source gives them in different places.

Molecule `CC(C)CN(C[C@@H](O)[C@H](Cc1ccccc1)NC(=O)O[C@H]1CCOC1)S(=O)(=O)c1ccc(N)cc1` [VX-478] displayed an AUC in data set [1] of 16.2 ± 1.8 µg·h/mL. Moreover, in data set [2], the AUC came out at 23.5 ± 7.4 µg·h/mL, the Cmax was determined as 6.8 ± 1.1 µg/mL and the Tmax worked out at 1.0 ± 0.8 h. In “in vivo”, the AUC amounted to 29.6 ± 5.8 µg·h/mL.
